The values below come from PubChem BioAssay AID1996.

What is called kinetic solubility is solubility judged after dilution from a stock solution rather than from solid.

≈ marks a conversion by molar mass, not a printed value.

The conditions of the series: buffer; pH 7.4; 200.0 µM.
On to `O=C1C2C3CC(C2C(=O)N1c1cccc(Cl)c1)[C@H](O)C3O` (some centres undefined), for which the solubility (kinetic) is over 46.2 µg/mL.
The value for `COc1ccccc1OCC#CCn1ccnc1.O=C(O)C(=O)O` was over 49.8 µg/mL.
As for `CCOC(=O)CNC(=O)CSc1nccn1Cc1ccco1`, the figure is over 48.5 µg/mL; as for `O=C(Cc1ccc(Cl)cc1)NC1CCCCCC1`, 10.2 µg/mL (≈ 38.4 µM).
As for `Cc1c(Cl)cnc(NC(=O)COC(=O)CNC(=O)c2ccccc2)c1Cl`, the figure is 52.3 µg/mL (≈ 132 µM); as for `CC(=O)Nc1c(-c2ccccc2)nc2ccc(Cl)cn12`, 42.7 µg/mL (≈ 149 µM); as for `CSc1ncc(Cl)c(C(=O)Nc2cc(C)ccc2C)n1`, under 0.2 µg/mL.
The molecule `O=C(CC1(CC(=O)N2CCOCC2)CCCC1)Nc1ccccc1` came in with a kinetic solubility of over 49.6 µg/mL.
The value for `COc1ccc(/C=C/c2nc(-c3ccccc3)cc(=O)[nH]2)cc1` was under 0.3 µg/mL; that for `NS(=O)(=O)c1ccc(NC(=S)N2CCCC2)cc1` was over 42.8 µg/mL.
`Cc1nc(S(=O)(=O)Nc2ccccc2C(=O)NCC2CC2)cn1C` returned a kinetic solubility of over 52.3 µg/mL.
As for `Cl.O=C(NC1CCN(Cc2ccccc2)CC1)c1cccc(S(=O)(=O)Nc2ccc(SC(F)F)cc2)c1`, the figure is 31.7 µg/mL.
Molecule `COc1ccc(NC(=O)[C@@H]2CCCN2S(=O)(=O)c2ccccc2F)cc1S(=O)(=O)N1CCCCC1` returned a solubility (kinetic) of 37.1 µg/mL (≈ 70.6 µM).
As for `CCn1c2ccccc2c2cc(C#N)c(N)nc21`, the figure is 0.7 µg/mL (≈ 2.96 µM); as for `CN(CC(=O)NCc1ccccc1)Cc1ccc(Cl)cc1`, 43.3 µg/mL (≈ 143 µM).
The value for `Cn1c(Oc2ccc(F)cc2F)c(C=O)c2ccccc21` was 16.6 µg/mL (≈ 57.8 µM); that for `COc1ccc(CC(=O)N2CCN(c3ccc(F)cc3)CC2)cc1` was 38.3 µg/mL (≈ 117 µM); that for `COc1ccc(-c2cc(-c3ccco3)[nH]c(=O)c2C#N)cc1` was 5.3 µg/mL (≈ 18.1 µM).
As for `Cc1ccc(S(=O)(=O)NC(=O)Nc2c(C)cccc2C)cc1`, the figure is 33.6 µg/mL (≈ 106 µM); as for `CCNC(=O)CC1C(=O)N(c2ccc(C)cc2)C(=O)N1CCC(C)C` (centres undefined), over 51.8 µg/mL.
As for `CSS(=O)(=O)c1cccc2cccnc12`, the solubility (kinetic) was over 35.9 µg/mL.
The value for `O=[N+]([O-])c1cccc2c3c([nH]c12)CCCC3` was under 0.2 µg/mL; that for `O=c1c2ccccc2nc(-c2ccccc2)n1-c1ccccc1` was 43.6 µg/mL (≈ 146 µM); that for `CCOc1nc(-c2ccccc2)ncc1Oc1ccccc1` was under 0.3 µg/mL.
The value for `Cc1ccc(NC(=O)C2CCCC2)cc1Cl` was 3.7 µg/mL (≈ 15.6 µM).
As for `COc1ccc(S(=O)(=O)n2cccc2)c(OC)c1`, the figure is 3.9 µg/mL (≈ 14.6 µM).
`O=C(CNC(=O)c1ccc(Cl)cc1Cl)OCc1cn2cc(Br)ccc2n1` had a kinetic solubility of 29.7 µg/mL (≈ 65 µM).
As to `Cc1c(C(=O)N(C)Cc2nc3ccccc3c(=O)[nH]2)oc2ccccc12`, the kinetic solubility came to 4.6 µg/mL (≈ 13.2 µM).
In turn, `CN(C(=O)CSc1nnc2n1CCCCC2)C1(C#N)CCCCC1` returned a solubility (kinetic) of over 52.1 µg/mL.
As for `Cc1ccc(NC(=O)c2cnccn2)c(C)c1`, the figure is 32.7 µg/mL (≈ 144 µM); as for `Nc1[nH]c(=O)ncc1F`, over 19.4 µg/mL; as for `COc1cc(CN2CCCCCC2)cc(OC)c1O`, 27 µg/mL (≈ 102 µM).
The value for `CCOc1ccccc1N1C(=O)CC(Sc2nccc(C)n2)C1=O` (centres undefined) was over 51.5 µg/mL; that for `COc1ccc(NC(=O)COc2cccnc2[N+](=O)[O-])cc1OC` was over 50 µg/mL; that for `CCCCn1c(=O)cc(C)n(-c2ccccc2)c1=O` was 22.8 µg/mL (≈ 88.3 µM).
As for `CN(C)c1ncnc2sc(-c3ccccc3)cc12`, the figure is 3 µg/mL (≈ 11.7 µM).
Molecule `COc1cc(OC)nc(Oc2cccc(C(F)(F)F)c2)n1` showed a kinetic solubility of under 0.3 µg/mL.
As for `CC(c1ccccc1)C1CC(=O)N(c2ccc([N+](=O)[O-])cc2)C1=O` (centres undefined), the figure is 32.5 µg/mL (≈ 100 µM).
The value for `COc1ccccc1NC(=O)c1ccc2c(=O)n3c(nc2c1)CCC3` was 13.2 µg/mL (≈ 39.4 µM); that for `COc1cccc(NS(=O)(=O)c2ccc3c(c2)CC(=O)N3)c1` was over 47.8 µg/mL; that for `CN(c1nc2ccccc2[nH]c1=O)C1CCCCC1` was 2.9 µg/mL (≈ 11.3 µM).
The value for `CC1=CC(=C(C#N)C#N)C=C(C)N1CCC(C)C` was 1.7 µg/mL (≈ 7.04 µM).
As to `Cc1ccc(S(=O)(=O)NCC(=O)OCC(=O)NC2CCCCC2)cc1`, the solubility (kinetic) is over 55.3 µg/mL.
The value for `COC(=O)c1ccc(CO/N=C/c2ccc(OC)cc2)o1` was 13.9 µg/mL (≈ 48 µM); that for `O=C(CSc1ncnc2ccccc12)NCCc1ccccc1` was over 48.5 µg/mL.
The value for `O=C(Cc1c(F)cccc1Cl)N1CCOCC1` was over 38.7 µg/mL; that for `O=[N+]([O-])c1ccc(Oc2cccc(C(F)(F)F)c2)nc1` was 3.5 µg/mL (≈ 12.3 µM).
The value for `CC(=O)NC1=NN(C(C)=O)C(c2ccco2)S1` (centres undefined) was over 38 µg/mL.
As for `Cc1cccc(-c2noc(CCCC(=O)NC3CCCC3)n2)c1`, the solubility (kinetic) was determined as 42.2 µg/mL (≈ 135 µM).
Consider `CN(CC(=O)Nc1cccc(F)c1)C(=O)C1=COCCO1`, for which the kinetic solubility was over 44.1 µg/mL.
The value for `O=[N+]([O-])c1ccc2c(c1)nc1n2CCN(c2ccccc2)C1` was 6.8 µg/mL (≈ 23.1 µM); that for `O=C(COC(=O)c1ccc(F)cc1)NCCCc1ccccc1` was 5.9 µg/mL (≈ 18.7 µM).
As for `COc1ccccc1NC(=S)N1CCCc2ccccc21`, the solubility (kinetic) worked out at 22.9 µg/mL (≈ 76.7 µM).
The value for `CCOC(=O)c1cc2ccccc2n1CC(=O)c1ccccc1` was under 0.7 µg/mL.
As for `COc1cccc(C(=O)NCc2ccco2)c1OC`, the figure is over 39.2 µg/mL.
The value for `COc1ccc(-c2noc(CCC(=O)NC3CCCC3)n2)cc1` was 27.2 µg/mL (≈ 86.2 µM); that for `CSc1nc2sc3c(c2c(=O)n1CC(C)C)CC(C)(C)OC3` was under 0.4 µg/mL.
The molecule `CC(=O)Nc1ccc(C(=O)/C=C/c2ccc[nH]2)cc1` came in with a kinetic solubility of 2.9 µg/mL (≈ 11.4 µM).
The value for `FC(F)(F)c1nc(NCc2cccnc2)c2ccccc2n1` was 2.6 µg/mL (≈ 8.54 µM); that for `CCN(CC)C(=O)CSC(Nc1cccc(F)c1)=C(C#N)C#N` was over 49.9 µg/mL; that for `Cc1nonc1NC(=O)CSc1ccccn1` was over 37.5 µg/mL.
As for `CS(=O)(=O)Nc1ccccc1C(=O)OCC(=O)NC1CC1`, the figure is over 46.9 µg/mL; as for `COc1ccc(/C=N/NC(=O)c2cccnc2)cc1`, over 38.3 µg/mL.
The value for `CCn1c(O)c(C=Nc2ccccc2)sc1=O` was 0.5 µg/mL (≈ 2.01 µM); that for `CNS(=O)(=O)c1cc2c3c(cccc3c1)C(=O)NC2=O` was 6.3 µg/mL (≈ 21.7 µM); that for `CCOc1ccc(C(=O)OCC(=O)Nc2cccnc2Cl)cc1OCC` was 19 µg/mL (≈ 50.2 µM).
`CC1CC1C(=O)Nc1nc2ccc(S(C)(=O)=O)cc2s1` (centres undefined): the kinetic solubility was over 46.6 µg/mL.
As for `COc1cccc(NC(=O)c2ccccc2NC(=O)c2ccncc2)c1`, the figure is 29.1 µg/mL (≈ 83.8 µM).
As for `O=Cc1cnc(N2CCN(c3ccccc3)CC2)s1`, the figure is over 41 µg/mL; as for `CC(=O)Nc1ccc(S(=O)(=O)N[C@@H](C)C(=O)NC2CCCc3ccccc32)cc1` (some centres undefined), 30.3 µg/mL (≈ 72.9 µM).
`Cc1cccc(C(=O)N/C(=C\c2ccc(C)o2)C(=O)O)c1` registered a kinetic solubility of over 42.8 µg/mL.
Consider `O=C1c2ccccc2CN1CCNC(=S)NC1CCCCC1`, for which the solubility (kinetic) is over 47.6 µg/mL.
The value for `COc1ccc(NC(=O)c2cc(-c3ccco3)on2)cc1` was 0.8 µg/mL (≈ 2.81 µM); that for `FC(F)(F)c1ccccc1NC(=S)N1CCCC1` was 33 µg/mL (≈ 120 µM).
The value for `COC1c2ccccc2C(=O)N1CCc1ccc(Cl)cc1` (centres undefined) was 41.7 µg/mL (≈ 138 µM).
With `CCC(=O)c1ccc(N2CCN(C(=O)c3ccc(F)cc3)CC2)c(F)c1`, the kinetic solubility was over 53.8 µg/mL.
The value for `O=C(c1ccc2ccccc2n1)N1CCN(S(=O)(=O)c2ccc(Cl)cc2)CC1` was 27.4 µg/mL (≈ 65.9 µM).
The value for `COc1ccccc1OCC(=O)NC1CCCCCCC1` was 40.8 µg/mL (≈ 140 µM); that for `COc1ccc(CCNC(=O)C2Cc3ccccc3C(=O)O2)cc1` (centres undefined) was over 48.8 µg/mL.
The value for `CC1(C)Cc2c(sc(NC(=O)/C=C/C(=O)O)c2C#N)CO1` was 41.4 µg/mL (≈ 135 µM); that for `CCCCCC1CCC(c2ccc(/C(N)=N/O)cc2)CC1` (centres undefined) was under 0.3 µg/mL.
The molecule `COc1ccc([N+](=O)[O-])cc1NC(=O)COC(C)=O` gave a kinetic solubility of 35.7 µg/mL (≈ 133 µM).
Molecule `COC(=O)[C@H](Cc1ccccc1)NC(=O)NC(C)CCc1ccccc1` (some centres undefined) yielded a solubility (kinetic) of 49.8 µg/mL (≈ 140 µM).
The value for `COc1ccc(C2=NOC(C(=O)Nc3cc(C)on3)C2)cc1OC` (centres undefined) was over 49.7 µg/mL; that for `OCC1(Cc2ccccc2)CCCN(C2CCCC2)C1` (centres undefined) was 34.1 µg/mL (≈ 125 µM).
The value for `COc1c(C)cc(S(=O)(=O)NCCN2CCOCC2)c(C)c1C` was 46.4 µg/mL (≈ 135 µM).
As for `O=C(Nc1ccc(F)cc1F)NC1CCCc2ccccc21` (centres undefined), the figure is 0.3 µg/mL (≈ 0.992 µM); as for `CC1CCCN(C(=O)COc2ccc(Nc3ccccc3)cc2)C1` (centres undefined), 6.2 µg/mL (≈ 19.1 µM).
`COc1cc2c(cc1OC)C(c1cccc([N+](=O)[O-])c1)NC(=O)C2` (centres undefined) returned a kinetic solubility of 26.1 µg/mL (≈ 79.5 µM).
The value for `O=C1CC(c2ccccc2Cl)CC(O)=C1C=NCCCO` (centres undefined) was 44.3 µg/mL (≈ 144 µM); that for `Cc1noc(C)c1C(=O)OC(C)C(=O)N(C)c1ccccc1` (centres undefined) was over 45.3 µg/mL.
As for `CC1CN(S(=O)(=O)c2ccc(C(=O)NC3CCCCC3)cc2)CC(C)O1` (centres undefined), the figure is 45.8 µg/mL (≈ 120 µM); as for `Cc1cc(C)c(S(=O)(=O)NCc2cccs2)cc1C`, 36.5 µg/mL (≈ 124 µM); as for `Cc1[nH]n(-c2ccccc2)c(=O)c1C=NCC1CCCO1` (centres undefined), over 42.8 µg/mL.
`CC1CC(C)CN(c2ccc(NS(=O)(=O)c3ccccc3)cc2C(=O)O)C1` (centres undefined) yielded a kinetic solubility of 57.2 µg/mL (≈ 147 µM).
The value for `Cc1cc(C)c(C(=O)COC(=O)c2c(C)noc2C)cc1C` was 7.1 µg/mL (≈ 23.6 µM); that for `O=C(NC1CCOc2ccccc21)c1ccc(Cl)nc1` (centres undefined) was over 43.3 µg/mL; that for `COc1ccc(C(=O)NC(=S)Nc2cccnc2)cc1Cl` was 1.5 µg/mL (≈ 4.66 µM).
The value for `Cc1ccc(CNCc2ccco2)cc1.O=C(O)C(=O)O` was over 43.7 µg/mL.
The value for `CN(Cc1ccc(F)cc1)C(=O)CCc1nnc(-c2ccccc2)o1` was over 50.9 µg/mL.
For the molecule `CSc1cc(-c2ccncc2)nc(-c2ccc(Cl)cc2)c1`, the kinetic solubility was under 0.3 µg/mL.
As for `CCSc1ncc(Cl)c(C(=O)Nc2cc(C)ccc2C)n1`, the figure is under 0.2 µg/mL; as for `Cc1c(C=Nc2ccc(S(=O)(=O)CCO)cc2)c(O)[nH]c(=O)c1C#N`, over 54.2 µg/mL; as for `CCOC(=O)c1ccc(NC(=O)CN2C(=O)CN(C(C)=O)C2=S)cc1`, 51.8 µg/mL (≈ 143 µM).
